Source: paper PMC11123929, “A Comparative Study and Prediction of the Ex Vivo Permeation of Six Vaginally Administered Drugs across Five Artificial Membranes and Vaginal Tissue” (Molecules, 2024)

Key:
[1] = Ex vivo permeability in Franz diffusion cell, cow vaginal tissue
Method: Ex vivo experiments were conducted on cow vaginal mucosa sourced from a local slaughterhouse. Tissues with an exposure area of 0.19 cm^2 were placed in a Franz diffusion cell with the epithelial mucosa side facing the donor compartment. In the donor compartment, 200 μL of API’s solution in VFS (pH 4.5) was added (37 °C ± 0.2 °C), while the acceptor was filled with 5 mL of PBS at pH 7.4 (constant stirring at 100 rpm).
Samples were centrifuged at 2000× g for 10 min, and supernatants were analyzed using HPLC as described in Section 4.1.
The procedure for extracting the drug from the tissue was as follows: after the experiment was completed, each tissue was carefully removed from the Franz cell and immersed in 5 mL of methanol. It was then sonicated for 30 min, followed by 10 min of vertexing, another 30 min in the sonicator, and 10 min of vertexing. Finally, the samples were centrifuged for 20 min at 5000× g, and the supernatant was collected for analysis.

[2] = Franz diffusion cell in vitro permeability, hybrid IPM-cellulose membrane
From the text: (§1) There are many membranes available on the market that are grouped as cellulosic and polymeric. Taking into account those that are more convenient and economical, two synthetic membranes and their combinations were used. Synthetic PVDF (polyvinylidene difluoride) and cellulose acetate (Table S2) membranes were pre-treated according to the supplier’s instructions. Cellulose membranes were further treated to acquire their lipophilic properties. Thus, they were placed on a flat glass surface and completely coated with IPM (isopropyl myristate) solution. The cellulose membrane was allowed to incubate in the IPM solution for 30 min. After impregnation, the excess IPM solution was drained off, and the membrane was used for the in vitro experiments. To ensure that the procedure was carried out successfully, the cellulose membrane was weighed before and after pretreatment.
(§2) The in vitro permeability profile of each compound was evaluated using the Franz diffusion cell setup (PermeGear, Hellertown, PA, USA). Five distinct artificial membranes were placed between the donor (upper) and receiver (lower) chambers of cells, with an effective diffusion area of 4.9 cm^2 and a receptor volume of 20 mL; 1 mL of APIs solutions were placed in the donor compartment, which was sealed with Parafilm® to prevent any loss of moisture. The acceptor contained degassed PBS at pH 7.4. The procedure was performed under agitation at 90 rpm and at a temperature of 37 °C ± 0.2 °C.
(§3) At specified intervals (t = 2, 3, 4, 6, and 8 h), 0.5 mL of the samples was taken from the receptor compartment and replaced with an equal volume of freshly prewarmed receptor medium. The concentration of each API was quantified using the appropriate HPLC method (Section 4.1) without sample pretreatment. Blanks containing PBS were pretreated with the same procedure. Each sample was analyzed in triplicate, and its cumulative release over time was plotted (Figure 2). The steady-state flux (Jss) was determined by plotting the permeation of the API per unit area (μg/cm^2) against time (h) and calculating the slope of the linear portion of the resulting line. Equation (1) was applied to calculate the apparent permeability coefficient (cm/h) (Paap).

[3] = cited from earlier work; for PSA: ref Pubchem [1]
[4] = Franz diffusion cell in vitro permeability, PVDF membrane; conditions: for Cumulative Amount Permeated, PVDF (Hydrophobic): after 8 h, mean ± SD (n = 3); for permeation order of the substance, PVDF (Hydrophobic): rank among the six drugs by cumulative amount after 8 h; for Papp at 8 h: pH 7.4
From the text: as §1, §2, §3

[5] = Franz diffusion cell in vitro permeability, cellulose membrane; conditions: for Cumulative Amount Permeated, Cellulose (Hydrophilic): after 8 h, mean ± SD (n = 3); for Papp (experimental, in vitro): cellulose membrane, Table 6, compared with PLS prediction; for permeation order of the substance, Cellulose (Hydrophilic): rank among the six drugs by cumulative amount after 8 h; for Papp at 8 h: pH 7.4
From the text: as §1, §2, §3

[6] = Retention on reversed-phase C4 HPLC column as indication of tissue penetration; assay type: physicochemical; conditions: ACE C4 150 × 4.6 mm, MeOH-H2O 10:90, 0.5 mL/min, 40 °C
Method: Under the given conditions, it was assumed that the stationary phase simulates the tissue while the aqueous mobile phase represents the surrounding space. […] The analysis was carried out under isocratic conditions with a flow rate of 0.5 mL/min and a mobile phase consisting of MeOH-H2O at 10:90 (v/v).

[7] = cited from earlier work
[8] = Franz diffusion cell in vitro permeability, IPM-impregnated cellulose membrane; conditions: for Cumulative Amount Permeated, Impregnated IPM: after 8 h, mean ± SD (n = 3); for Papp at 8 h: pH 7.4; for permeation order of the substance, Impregnated IPM: rank among the six drugs by cumulative amount after 8 h
From the text: as §1, §2, §3

[9] = Franz diffusion cell in vitro permeability, hybrid PVDF-cellulose membrane
From the text: as §1, §2
as §3, with “Blanks containing PBS were pretreated with the same procedure.” left out, “Equation (1) was applied to calculate the apparent permeability coefficient (cm/h) (Paap).” left out

[10] = rank among the six drugs by cumulative amount after 8 h

SMILES	tissue permeability / diffusion profile in vaginal tissue, ex vivo [1]	diffusion profile in cellulose-IPM membrane [2]	Cumulative Amount Permeated, PVDF (Hydrophobic) [4] [μg/cm^2]	permeation order of the substance, PVDF (Hydrophobic) [4]	Papp value / permeability / diffusion profile in cellulose membrane [5]	Cumulative Amount Permeated, Cellulose (Hydrophilic) [5] [μg/cm^2]	Papp (experimental, in vitro) [5] [×10⁻⁶ cm/s]	permeation order of the substance, Cellulose (Hydrophilic) [5]	Retention time (tr) in column C4 [6] [min]	Cumulative Amount Permeated, Impregnated IPM [8] [μg/cm^2]	Papp at 8 h [8] [×10⁻⁶ cm/s]	permeation order of the substance, Impregnated IPM [8]	Acceptor's Mass ([1]; cow, 8 h)	Final Mass Donor ([1]; cow, 8 h)	Tissue Extraction ([1]; cow, 8 h)	Papp at 8 h [4] [×10⁻⁶ cm/s]	Papp at 8 h [5] [×10⁻⁶ cm/s]	Tangible aqueous solubility (descriptive term) ([3]; ref European Pharmacopeia)	PSA [3] [Å2]	further results
CCCCCCCCCc1ccc(OCCOCCOCCOCCOCCOCCOCCOCCOCCO)cc1 [NONO, nonoxynol-9]	does not penetrate the vaginal tissue at all and zero	zero	1752.2	2nd	negligible	20.1	0.0556	4th	39.48	–	–	–	–	–	–	–	–	miscible with H2O	103.3	Tissue Extraction ([1]; drug extracted from tissue with methanol after the experiment): 0.15 (±0.05) mg; Acceptor's Mass ([1]; ex vivo, end of experiment): 0 mg; Final Mass Donor ([1]; ex vivo, end of experiment, mean ± SD (n = 3)): 1.85 (±0.2) mg
O=[N+]([O-])OCC(CO[N+](=O)[O-])O[N+](=O)[O-] [nitroglycerin]	–	–	–	–	–	–	–	–	–	–	–	–	–	–	–	–	–	–	–	log P [7]: 1.6
CCN(CC)CC(=O)Nc1c(C)cccc1C [LIDO, lidocaine]	–	–	–	–	–	–	–	–	–	–	–	–	0.53 (±0.09) mg	0.9 (±0.1) mg	0.5 (±0.09) mg	–	–	–	–	–
Clc1ccc(COC(Cn2ccnc2)c2ccc(Cl)cc2Cl)c(Cl)c1 (stereo not shown) [MICO, miconazole]	zero	zero	33.4	5th	negligible and zero	–	0	–	10.2	–	–	–	0 mg	0.26 (±0.02) mg	0 mg	0.806	–	very slightly soluble	27	–

Second part, led by results:

tissue permeability / diffusion profile in vaginal tissue, ex vivo [1]	diffusion profile in cellulose-IPM membrane [2]	Cumulative Amount Permeated, PVDF (Hydrophobic) [4] [μg/cm^2]	permeation order of the substance, PVDF (Hydrophobic) [4]	Papp value / permeability / diffusion profile in cellulose membrane [5]	Cumulative Amount Permeated, Cellulose (Hydrophilic) [5] [μg/cm^2]	Papp (experimental, in vitro) [5] [×10⁻⁶ cm/s]	permeation order of the substance, Cellulose (Hydrophilic) [5]	Retention time (tr) in column C4 [6] [min]	Cumulative Amount Permeated, Impregnated IPM [8] [μg/cm^2]	Papp at 8 h [8] [×10⁻⁶ cm/s]	permeation order of the substance, Impregnated IPM [8]	Acceptor's Mass ([1]; cow, 8 h)	Final Mass Donor ([1]; cow, 8 h)	Tissue Extraction ([1]; cow, 8 h)	Papp at 8 h [4] [×10⁻⁶ cm/s]	Papp at 8 h [5] [×10⁻⁶ cm/s]	SMILES	Tangible aqueous solubility (descriptive term) ([3]; ref European Pharmacopeia)	PSA [3] [Å2]	further results
–	–	2008.4	1st	–	3976.4	6.39	1st	3.93	2373.1	3.89	1st	0.65 (±0.08) mg	0.01 (±0.001) mg	1.4 (±0.2) mg	2.5	6.39	Cc1ncc([N+](=O)[O-])n1CCO [METRO, metronidazole]	very soluble	83.87	Papp at 8 h, 10 mg/mL ([1]; cow): 12.8 ×10⁻⁶ cm/s; Cumulative Amount Permeated, Tissue ([1]; cow, 8 h, 10 mg/mL): 3419.5 μg/cm^2; permeation order of the substance, Tissue ([1]; cow, 8 h, 10 mg/mL): 1st; Cumulative Amount Permeated, IPM-Cellulose ([2]; after 8 h, mean ± SD (n = 3)): 307.3 μg/cm^2; Papp at 8 h ([2]; pH 7.4): 0.556 ×10⁻⁶ cm/s; permeation order of the substance, IPM-Cellulose [2, 10]: 3rd; Tangible aqueous solubility (value in brackets) ([3]; ref European Pharmacopeia): 5920 µg/mL; Cumulative Amount Permeated, PVDF-Cellulose ([9]; after 8 h, mean ± SD (n = 3)): 370.2 μg/cm^2; Papp at 8 h ([9]; pH 7.4): 1.11 ×10⁻⁶ cm/s; permeation order of the substance, PVDF-Cellulose [9, 10]: 3rd
zero	zero	15.3	6th	negligible	1.7	0.239	5th	9.94	0.92	0.0389	4th	0 mg	0.2 (±0.01) mg	0.01 (±0.001) mg	0.0417	0.239	Clc1ccc(COC(Cn2ccnc2)c2ccc(Cl)cc2Cl)cc1 (stereo not shown) [ECO, econazole]	very slightly soluble	27	–
